In patent US9409907B2, “Inhibitor compounds” (Cancer Research Technology Limited, priority 2012, dated 2016) one finds IC50 data, which are given here for 38 compounds.

A word on the IC50: it is the concentration needed to halve the response being measured.

Sequence of full length MPS1 (P33981 whole entry): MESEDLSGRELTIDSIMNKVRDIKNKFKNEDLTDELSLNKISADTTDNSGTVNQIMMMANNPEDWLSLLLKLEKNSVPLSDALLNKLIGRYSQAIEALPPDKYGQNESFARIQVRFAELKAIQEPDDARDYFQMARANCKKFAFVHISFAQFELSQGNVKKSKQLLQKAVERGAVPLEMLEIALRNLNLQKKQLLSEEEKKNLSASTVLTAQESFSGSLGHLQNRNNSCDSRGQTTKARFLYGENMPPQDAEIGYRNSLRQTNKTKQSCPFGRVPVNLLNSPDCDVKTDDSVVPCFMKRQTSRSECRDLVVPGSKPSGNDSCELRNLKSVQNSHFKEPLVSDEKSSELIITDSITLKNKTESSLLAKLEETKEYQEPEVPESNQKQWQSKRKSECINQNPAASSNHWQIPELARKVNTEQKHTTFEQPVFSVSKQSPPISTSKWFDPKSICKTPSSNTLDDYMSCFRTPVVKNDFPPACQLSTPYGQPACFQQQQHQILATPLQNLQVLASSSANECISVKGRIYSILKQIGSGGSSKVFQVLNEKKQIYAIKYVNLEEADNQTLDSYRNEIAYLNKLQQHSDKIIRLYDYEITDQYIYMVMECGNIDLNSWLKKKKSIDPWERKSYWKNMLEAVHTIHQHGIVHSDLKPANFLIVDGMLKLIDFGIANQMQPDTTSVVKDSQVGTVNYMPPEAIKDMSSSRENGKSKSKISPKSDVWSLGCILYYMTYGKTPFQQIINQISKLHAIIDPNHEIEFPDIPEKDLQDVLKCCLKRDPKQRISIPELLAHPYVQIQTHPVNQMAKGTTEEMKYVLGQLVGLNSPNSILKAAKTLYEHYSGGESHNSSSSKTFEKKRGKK

This experiment has as its target full length MPS1 (Homo sapiens (Human), UniProt P33981). Nature of the experiment: Measurement of inhibition of MPS1 kinase (Caliper EZ reader mobility-shift enzyme assay). The class given is biochemical. To be noted: full length MPS1 12.5 nM or 3 nM, H236 peptide 5 μM, ATP 10 μM, 60 min at room temperature. How it is done: Measurement of Inhibition of MPS1 Kinase
The reaction was carried out for 60 min at room temperature and stopped by the addition of buffer (10 μl) containing 20 mM EDTA, 0.05% (v/v) Brij-35, in 0.1M HEPES-buffered saline (Free acid, Sigma, UK). The plate was read on a Caliper EZ reader II (Caliper Life Sciences).
The % inhibition of the compounds is calculated relative to the means of selected control wells.
Take `COc1cc(C(=O)N2CC(OC)C2)ccc1Nc1cc2c(-c3cnn(CCN(C)C)c3)cccc2cn1` [Example 1, (4-((5-(1-(2-(Dimethylamino)ethyl)-1H-pyrazol-4-yl)isoquinolin-3-yl)amino)-3-methoxyphenyl)(3-methoxyazetidin-1-yl)methanone]: the IC50 turned out to be 61 nM. On to `COc1cc(-c2cnn(C)c2)ccc1Nc1ncc2ccnc(N3CC4(CCOC4)C3)c2n1` [Example 120, N-(2-methoxy-4-(1-methyl-1H-pyrazol-4-yl)phenyl)-8-(6-oxa-2-azaspiro[3.4]octan-2-yl)pyrido[3,4-d]pyrimidin-2-amine], for which the IC50 turned out to be 3 nM. To `COc1cc(-c2cncn2C)ccc1Nc1cc2c(-c3cnn(C)c3)cccc2cn1` [Example 14, N-(2-methoxy-4-(1-methyl-1H-imidazol-5-yl)phenyl)-5-(1-methyl-1H-pyrazol-4-yl)isoquinolin-3-amine] belongs 7 nM; to `COc1cc(-c2cnn(C)c2)ccc1Nc1ncc2ccnc(N3CCOC(CO)C3)c2n1` (centres unmarked) [Example 135, (4-(2-(2-Methoxy-4-(1-methyl-1H-pyrazol-4-yl)phenylamino)pyrido[3,4-d]pyrimidin-8-yl)morpholin-2-yl)methanol], 4 nM. For the compound `COc1cc(-c2cnn(C)c2)ccc1Nc1ncc2ccnc(N3CCN(S(C)(=O)=O)CC3)c2n1` [Example 139, N-(2-Methoxy-4-(1-methyl-1H-pyrazol-4-yl)phenyl)-8-(4-(methylsulfonyl)piperazin-1-yl)pyrido[3,4-d]pyrimidin-2-amine], the IC50 was found to be 6 nM. `COC(C)(C)CNc1nc(C)cc2cnc(Nc3ccc(-c4cnn(C)c4)cc3OC(F)F)nc12` [Example 197]: the 50% inhibitory concentration (IC50) came to 34 nM. To `COc1cc(OC2CCN(C)CC2)ccc1Nc1cc2c(-c3cnn(C)c3)cccc2cn1` [Example 29, N-(2-Methoxy-4-((1-methylpiperidin-4-yl)oxy)phenyl)-5-(1-methyl-1H-pyrazol-4-yl)isoquinolin-3-amine] belongs 17 nM; to `COC(C)(C)CNc1nccc2cnc(Nc3ccc(F)cc3OC(F)F)nc12` [Example 203], 46 nM; to `COc1cc(-c2cnn(C)c2)ccc1Nc1cc2c(NC3CCCCC3)nccc2cn1` [Example 105, N1-cyclohexyl-N7-(2-methoxy-4-(1-methyl-1H-pyrazol-4-yl)phenyl)-2,6-naphthyridine-1,7-diamine], 56 nM. The value for `COc1cc(C(=O)N2CC(OC)C2)ccc1Nc1cc2c(-c3cncn3C)cccc2cn1` [Example 4, (3-methoxy-4-((5-(1-methyl-1H-imidazol-5-yl)isoquinolin-3-yl)amino)phenyl)(3-methoxyazetidin-1-yl)methanone] was 112 nM.

In the case of `COc1cc(-c2cnn(C)c2)ccc1Nc1ncc2ccnc(N3CC(C#N)C3)c2n1` [Example 121, 1-(2-(2-methoxy-4-(1-methyl-1H-pyrazol-4-yl)phenylamino)pyrido[3,4-d]pyrimidin-8-yl)azetidine-3-carbonitrile], the IC50 stood at 8 nM. For the compound `COc1cc(-c2c(C)noc2C)ccc1Nc1cc2c(-c3cnn(C)c3)cccc2cn1` [Example 18, N-(4-(3,5-dimethylisoxazol-4-yl)-2-methoxyphenyl)-5-(1-methyl-1H-pyrazol-4-yl)isoquinolin-3-amine], the IC50 came to 95 nM.

For `COCCn1cc(-c2cccc3cnc(Nc4ccc(C(=O)N5CC(OC)C5)cc4OC)cc23)cn1` [Example 2, (3-methoxy-4-((5-(1-(2-methoxyethyl)-1H-pyrazol-4-yl)isoquinolin-3-yl)amino)phenyl)(3-methoxyazetidin-1-yl)methanone], the IC50 is 14 nM. To `COc1cc(N2CCOCC2)ccc1Nc1ncc2ccnc(NCC(C)(C)C)c2n1` [Example 52, N2-(2-methoxy-4-morpholinophenyl)-N8-neopentyprido[3,4-d]pyrimidine-2,8-diamine] belongs 8 nM; to `COc1cc(-c2cnn(C)c2)ccc1Nc1ncc2ccnc(N3CCC4(CCC4)C3)c2n1` [Example 66, N-(2-methoxy-4-(1-methyl-1H-pyrazol-4-yl)phenyl)-8-(6-azaspiro[3.4]octan-6-yl)pyrido[3,4-d]pyrimidin-2-amine], 8 nM; to `COc1nc(-c2cnn(C)c2C)ccc1Nc1ncc2ccnc(NCC(C)(C)OC)c2n1` [Example 165, N^2-(6-(1,5-dimethyl-1H-pyrazol-4-yl)-2-methoxypyridin-3-yl)-N^8-(2-methoxy-2-methylpropyl)pyrido[3,4-d]pyrimidine-2,8-diamine], 3 nM.

For `COc1cc(-c2cnn(C)c2)ccc1Nc1cc2c(-c3cnn(C)c3)cccc2cn1` [Example 16, N-(2-methoxy-4-(1-methyl-1H-pyrazol-4-yl)phenyl)-5-(1-methyl-1H-pyrazol-4-yl)isoquinolin-3-amine], the IC50 came to 71 nM. To `COc1cc(C(=O)N2CC(OC)C2)ccc1Nc1cc2c(-c3cnn(C)c3)cccc2cn1` [Example 24] belongs 20 nM. For the compound `COc1cc(-c2cnn(C)c2)ccc1Nc1ncc2ccnc(NC3CCOC3)c2n1` (centres unmarked) [Example 78, N2-(2-methoxy-4-(1-methyl-1H-pyrazol-4-yl)phenyl)-N8-(tetrahydrofuran-3-yl)pyrido[3,4-d]pyrimidine-2,8-diamine], the IC50 was determined as 8 nM.

Regarding `COc1cc(Cl)ccc1Nc1ncc2ccnc(N3CCC4(COC4)C3)c2n1` [Example 178, N-(4-Chloro-2-methoxyphenyl)-8-(2-oxa-6-azaspiro[3.4]octan-6-yl)pyrido[3,4-d]pyrimidin-2-amine], the IC50 was determined as 24 nM. The value for `COc1cc(-c2cnn(C)c2)ccc1Nc1ncc2ccnc(-c3cncnc3)c2n1` [Example 208, N-(2-methoxy-4-(1-methyl-1H-pyrazol-4-yl)phenyl)-8-(pyrimidin-5H)pyrido[3,4-d]pyrimidin-2-amine] was 200 nM; that for `COCCn1c(-c2ccc(Nc3ncc4cc(C)nc(NCC(C)(C)C)c4n3)c(OC)c2)cnc1C` [Example 181] was 19.4 nM.

As to `COc1cc(-c2cnn(C)c2)ccc1Nc1ncc2ccnc(N3CCCC(CO)C3)c2n1` (centres unmarked) [Example 134, (1-(2-(2-Methoxy-4-(1-methyl-1H-pyrazol-4-yl)phenylamino)pyrido[3,4-d]pyrimidin-8-yl)piperidin-3-yl)methanol], the IC50 was 4 nM. To `COc1cc(-c2cnn(C)c2CO)ccc1Nc1ncc2ccnc(NCC(C)(C)OC)c2n1` [Example 184] belongs 2 nM; to `CCc1cc(-c2cnn(C)c2)ccc1Nc1ncc2ccnc(NCC(C)(C)C)c2n1` [Example 168, N2-(2-ethyl-4-(1-methyl-1H-pyrazol-4-yl)phenyl)-N8-neopentylpyrido[3,4-d]pyrimidine-2,8-diamine], 27 nM.

Consider `COc1cc(-c2cnn(C)c2)ccc1Nc1ncc2ccnc(N3CCC4(COC4)C3)c2n1` [Example 88, N-(2-methoxy-4-(1-methyl-1H-pyrazol-4-yl)phenyl)-8-(2-oxa-6-azaspiro[3.4]oxtan-6-yl)pyrido[3,4-d]pyrimidin-2-amine], for which the IC50 worked out at 3 nM. As for `COc1cc(-c2cnc(C)n2C)ccc1Nc1cc2c(-c3cnn(C)c3)nccc2cn1` [Example 104, N-(4-(1,2-dimethyl-1H-imidazol-5-yl)-2-methoxyphenyl)-5-(1-methyl-1H-pyrazol-4-yl)-2,6-naphthyridin-3-amine], the IC50 worked out at 7 nM. With `COc1cc(-c2cnn(C)c2)ccc1Nc1ncc2ccnc(N3CCC4(CCOC4)C3)c2n1` (centres unmarked) [Example 122, N-(2-methoxy-4-(1-methyl-1H-pyrazol-4-yl)phenyl)-8-(2-oxa-7-azaspiro[4.4]nonan-7-yl)pyrido[3,4-d]pyrimidin-2-amine], the IC50 turned out to be 3 nM. The value for `COc1cc(-c2nncn2C)ccc1Nc1ncc2c(C)cnc(NCC(C)(C)OC)c2n1` [Example 150, N^8-(2-methoxy-2-methylpropyl)-N^2-(2-methoxy-4-(4-methyl-4H-1,2,4-triazol-3-yl)phenyl)-5-methylpyrido[3,4-d]pyrimidine-2,8-diamine] was 3 nM.

With `COc1cc(-c2cnc(C)n2C)ccc1Nc1ncc2ccnc(-c3cnn(C)c3)c2n1` [Example 40, N-(4-(1,2-dimethyl-1H-imidazol-5-yl)-2-methoxyphenyl)-8-(1-methyl-1H-pyrazol-4-yl)pyrido[3,4-d]pyrimidin-2-amine], the IC50 amounted to 4 nM. As to `CCOc1cc(-c2nncn2C)ccc1Nc1ncc2cc(C)nc(NCC(C)(C)C)c2n1` [Example 182], the IC50 came out at 3 nM. To `COc1cc(C#N)ccc1Nc1ncc2ccnc(N3CCC4(COC4)C3)c2n1` [Example 206] belongs 17 nM; to `COc1cc(-c2cnn(C)c2)ccc1Nc1ncc2ccnc(N3CC(OC)C3)c2n1` [Example 67, N-(2-methoxy-4-(1-methyl-1H-pyrazol-4-yl)phenyl)-8-(3-methoxyazetidin-1-yl)pyrido[3,4-d]pyrimidin-2-amine], 10 nM; to `COc1cc(C(=O)N(C)C)ccc1Nc1cc2c(-c3cnn(C)c3)cccc2cn1` [Example 25], 28 nM. The value for `CCn1cc(-c2nccc3cnc(Nc4ccc(-c5cnn(C)c5)cc4OC)nc23)cn1` [Example 91, 8-(1-ethyl-1H-pyrazol-4-yl)-N-(2-methoxy-4-(1-methyl-1H-pyrazol-4-yl)phenyl)pyrido[3,4-d]pyrimidin-2-amine] was 10 nM; that for `Clc1ccc(Nc2ncc3ccnc(N4CCC5(COC5)C4)c3n2)c(Cl)c1` [Example 207] was 94 nM; that for `COc1cc(-c2cnn(C)c2)ccc1Nc1ncc2ccnc(NCC(C)(C)CO)c2n1` [Example 74, 3-((2-((2-methoxy-4-(1-methyl-1H-pyrazol-4-yl)phenyl)amino)pyrido[3,4-d]pyrimidin-8-yl)amino)-2,2-dimethylpropan-1-ol] was 4 nM. To `COCCNc1nccc2cnc(Nc3ccc(-c4cnn(C)c4)cc3OC)nc12` [Example 127, N^2-(2-Methoxy-4-(1-methyl-1H-pyrazol-4-yl)phenyl)-N^8-(2-methoxyethyl)pyrido[3,4-d]pyrimidine-2,8-diamine] belongs 8 nM.
